In patent US20220268782A1, “METHODS FOR PREDICTING AND TREATING CARDIAC DYSFUNCTION” (INSERM (INSTITUT NATIONAL DE LA SANTÉ EAT DE LA RECHERCHE …, priority 2019, published 2022):

Columns and labels:
[1] = system: Myocardial nitric oxide synthase (NOS); experiment: Myocardial nitric oxide synthase activity in hearts of BH4-treated mice; format: in vivo; conditions: hearts of 12.5-month-old WT mice treated with BH4 or vehicle, FIG. 4i
Protocol: Myocardial nitric oxide synthase (NOS) activity was determined in hearts of 12.5-month-old WT mice treated with BH4 or vehicle using a commercial kit (Biovision). Briefly, pulverized heart aliquots were processed according to the manufacturer's instructions and fluorometric readouts (excitation: 360, emission: 450) were normalised to protein concentration determined by Bradford assay. Activity of recombinant NOS protein served as positive control.

11 month-old WT mice = experiment: In vivo intraperitoneal BH4 treatment of 11-month-old WT mice: cardiac phenotyping, plasma and hepatic PA
Protocol: PA in a dose of 200 mg/kg twice a day or vehicle (1×PBS) was subcutaneously administered to 11 month-old WT mice (Janvier Labs, France) in vivo for a month. BH4 in a dose of 10 mg/kg/die 2×/die or vehicle (1×PBS with 10 mM sodium ascorbate and citric acid to pH 4.5) was intraperitoneally administered to 11 month-old WT mice in vivo over six weeks. General state of the mice (body weight & wellbeing) was closely monitored.
Data acquisition for a single cohort was performed by a single operator (JT or ER). Images were acquired from a parasternal position at the level of the papillary muscles using a 13-MHz linear-array transducer with a digital ultrasound system (Vivid 7, GE Medical System, Horton, Norway). Left ventricular dimensions and ejection fraction, anterior and posterior wall thicknesses were serially obtained from M-mode acquisition. Relative LV wall thickness (RWT) was defined as the sum of septal and posterior wall thickness over LV end-diastolic diameter, and LV mass was determined using the uncorrected cube assumption formula (LV mass=(AWTd+LVEDD+PWTd)^3−(LVEDD)^3). Peak systolic values of radial strain rate of the anterior and posterior wall were obtained using Tissue Doppler Imaging (TDI) as previously described.^2 TDI loops were acquired from parasternal view with a careful alignment with the radial component of the deformation' at a mean frame rate of 514 fps and a depth of 1 cm. The Nyquist velocity limit was set at 12 cm/s. Radial strain rate analysis was performed offline using the EchoPac Software (GE Medical Systems) blindly by a single operator (GD). Peak systolic of radial strain rate was computed from a region of interest positioned in the mid anterior wall and was measured over an axial distance of 0.6 mm. The temporal smoothing filters were turned off for all measurements. Because of the inevitable respiratory variability, we averaged peak systolic of radial strain rate on 8 consecutive cardiac cycles.
In vivo haemodynamic measurements were performed just before mice of indicated ages were sacrificed.' Haemodynamic evaluation was performed in mice placed on a homeothermic operating table in supine position under 1.5% isoflurane anesthesia with spontaneous breathing. A 1.4-Fr microcatheter (Millar Instruments, Houston, USA) was calibrated manually before each experiment, inserted via the right carotid artery into the aorta and subsequently advanced to the left ventricle. Data were collected after at least 10 min of baseline, using the lowest isoflurane concentration tolerated to ensure minimal cardiodepression during measurement of peak rates of isovolumetric pressure development (dP/dtmax) and pressure decay (dP/dtmin). The microcatheter was then withdrawn to the aorta for measurement of systolic and diastolic pressure. Data were analyzed using the IOX software (EMKA, France).
All mice were weighed, euthanized by cervical dislocation, followed by rapid excision of the organs of interest. The heart was cannulated through the aorta for perfusion with ice-cold 1×PBS, then blotted and weighed. The heart was cut in half perpendicular to its axis: the apical two-third was snap-frozen in liquid nitrogen, whilst the basic one-third was recannulated through the aorta, perfused with 10% formalin for histology. Hearts were kept in formalin at 4° C. for at least 24-48 hours before embedding. Snap-frozen tissues were kept at −80° C., until they were powdered using a mortar and pestle cooled with liquid nitrogen and collected as aliquots. Livers and kidneys were processed in a similar manner.
Formalin-fixed organs were embedded in paraffin. Cross-sections were cut into 7 μm thickness using a rotary microtome (Leica). To assess cardiac fibrosis, Sirius red staining was performed, followed by dehydration and mounting with Eukitt quick-hardening mounting medium (Sigma). […]

For CC(O)C(O)C1CNc2nc(N)[nH]c(=O)c2N1 (stereo not drawn) [BH4, 2-amino-6-(1,2-dihydroxypropyl)-5,6,7,8-tetrahydro-3H-pteridin-4-one], the “myocardial nitric oxide synthase activity” value [1] was “without altering”, the “plasma PA” value (11 month-old WT mice; 11-month-old WT mice, BH4 10 mg/kg i.p. twice a day over 6 weeks, FIG. 4a) was “reduce plasma PA to young levels” and the systemic arterial pressures (11 month-old WT mice; 11-month-old WT mice, BH4 10 mg/kg i.p. twice a day over 6 weeks, FIG. 4f) was “without lowering”. For the same compound, the “interstitial fibrosis (Sirius red, vimentin)” value (11 month-old WT mice; 11-month-old WT mice, BH4 10 mg/kg i.p. twice a day over 6 weeks, FIG. 4g-h) was “normalised”, the “senescent myocardial expression of p21, Pah, Gch1 & 2-SC” value (11 month-old WT mice; 11-month-old WT mice, BH4 10 mg/kg i.p. twice a day over 6 weeks, FIG. 4j) was “suppressing” and the “HW/TL (heart weight to tibia length)” value (11 month-old WT mice; 11-month-old WT mice, BH4 10 mg/kg i.p. twice a day over 6 weeks, to young values, FIG. 4b) was “ameliorated”. The “contractility (systolic strain rate, dP/dtmax)” value (11 month-old WT mice; 11-month-old WT mice, BH4 10 mg/kg i.p. twice a day over 6 weeks, to young values, FIG. 4c-d) was “ameliorated”, the “relaxation (dP/dtmin)” value (11 month-old WT mice; 11-month-old WT mice, BH4 10 mg/kg i.p. twice a day over 6 weeks, to young values, FIG. 4e) was “ameliorated” and the “Pah in liver (immunofluorescence)” value (11 month-old WT mice; 12.5-month-old WT mice, BH4 vs. vehicle, FIG. 4s) was “re-expressed”. The “hepatic PA content” value (11 month-old WT mice; 12.5-month-old WT mice, BH4 vs. vehicle, FIG. 4t) was “reduced”, the “course of drug treatment (body weight & wellbeing monitored)” value (11 month-old WT mice; BH4 10 mg/kg twice a day intraperitoneally over six weeks) was “completed as scheduled without incidents” and the “hepatic Pah activity” value (11 month-old WT mice; BH4-treated WT mice, data not shown) was “improved”.
